The values below come from ChEMBL document CHEMBL4270614, “Tuning the biological activity of cationic anthraquinone analogues specifically toward Staphylococcus aureus” (Eur J Med Chem, 2018).

The subject of data set [1] is Escherichia coli. Nature of the data set: Antibacterial activity against Escherichia coli ATCC 25922 measured after 12 to 18 hrs. The data set is classed as functional.
For data set [2], the system named is Staphylococcus aureus. Nature of the data set: Antibacterial activity against Staphylococcus aureus ATCC 25923 measured after 12 to 18 hrs. In kind it is functional.
For data set [3], the system named is Staphylococcus aureus. Nature of the data set: Antibacterial activity against methicillin-resistant Staphylococcus aureus ATCC 33591 measured after 12 to 18 hrs. The data set is classed as functional.
In data set [4] the test system is Staphylococcus aureus. Nature of the data set: Antibacterial activity against methicillin-resistant Staphylococcus aureus ATCC 43300 measured after 12 to 18 hrs. The data set is classed as functional.
Data set [5] concerns BEAS-2B. Nature of the data set: Cytotoxicity against human BEAS2B cells after 48 hrs by MTT assay. The data set is classed as cell-based. (In general: Tetrazolium assays rely on reduction of a dye to a coloured formazan, in cell work by metabolically active cells.)
Data set [6] concerns A549. Nature of the data set: Cytotoxicity against human A549 cells after 48 hrs by MTT assay. The data set is classed as cell-based. Conditions: A549, 48 h.
The nature of data set [7]: Selectivity index, ratio of IC50 for human BEAS2B cells to IC50 for human A549 cells. Particulars: BEAS2B cells versus A549 cells, read-out: Ratio IC50.
Data set [8] has as its system CCD-841CoN. Nature of the data set: Cytotoxicity against human CCD-841-CoN cells after 48 hrs by MTT assay. In kind it is cell-based.
Data set [9] concerns COLO 205. Nature of the data set: Cytotoxicity against human COLO205 cells after 48 hrs by MTT assay. In kind it is cell-based. Particulars: COLO 205, 48 h.
The nature of data set [10]: Selectivity index, ratio of IC50 for human CCD-841-CoN cells to IC50 for human COLO205 cells. Conditions: CCD-841-CoN cells versus COLO205 cells, read-out: Ratio IC50.
Data set [11] deals with Escherichia coli. Nature of the data set: Antibacterial activity against Escherichia coli ATCC 25922. The data set is classed as functional.
Data set [12] concerns Staphylococcus aureus. Nature of the data set: Antibacterial activity against Staphylococcus aureus ATCC 25923. The data set is classed as functional.

Converted amounts (≈) assume the structure as drawn.

As a reminder, the MIC is the lowest concentration that inhibits growth of the organism. High values mean weaker potency, low ones greater potency. What is called IC50 is the concentration needed to halve the response being measured. A higher IC50 goes with lower potency. On to `COc1ccc(-n2n[n+](C)c3c2C(=O)c2ccccc2C3=O)cc1.O=S(=O)([O-])C(F)(F)F`, for which the minimum inhibitory concentration (MIC) is above 128 µg/mL in [1], 1 to 2 µg/mL in [2], 0.5 µg/mL in data set [3] and 2 µg/mL in data set [4]. The IC50 in [5] was determined as 5.8 µg/mL; in data set [6], 0.78 µg/mL; in data set [8], 5.89 µg/mL; in data set [9] it was 0.7 µg/mL. The selectivity ratio in data set [7] stood at 7.44; in data set [10], 8.41.

For `C[n+]1nn(-c2ccc(F)cc2)c2c1C(=O)c1ccccc1C2=O.O=S(=O)([O-])C(F)(F)F`, the MIC in data set [1] was above 128 µg/mL; in [2], 1 µg/mL; in data set [3], 0.5 µg/mL; in [4], 1 µg/mL. Besides, the IC50 amounted to 14.2 µg/mL in data set [5], 2.22 µg/mL in data set [6], 8.16 µg/mL in [8] and 2.86 µg/mL in [9]. Also, the selectivity ratio came out at 6.44 in data set [7] and 2.85 in data set [10].

In the case of `CCCCCCCC[n+]1nn(-c2ccc([N+](=O)[O-])cc2)c2c1C(=O)c1ccccc1C2=O.O=S(=O)([O-])C(F)(F)F`, the MIC was 8 µg/mL in data set [2], 16 µg/mL in data set [3] and 32 µg/mL in data set [4]. The IC50 in data set [5] came out at 21 µg/mL; in data set [6], 15.6 µg/mL; in data set [8], 31 µg/mL; in [9] it was 8.53 µg/mL. The selectivity ratio in data set [7] is 4.76; in data set [10], 3.63.

`CCCCCC[n+]1nn(-c2ccc([N+](=O)[O-])cc2)c2c1C(=O)c1ccccc1C2=O.O=S(=O)([O-])C(F)(F)F`: the MIC in data set [2] was 2 to 4 µg/mL; in data set [3] it was 1 µg/mL; in data set [4], 128 µg/mL. Moreover, the IC50 in [5] came out at 38.6 µg/mL; in data set [6], 48.9 µg/mL; in data set [8] it was 40.2 µg/mL; in data set [9], 21.2 µg/mL. For the same compound, the selectivity ratio was 0.79 in [7] and 1.89 in data set [10].

For the compound `CC[n+]1nn(-c2ccc([N+](=O)[O-])cc2)c2c1C(=O)c1ccccc1C2=O.O=S(=O)([O-])C(F)(F)F`, the results for the MIC in data set [2], in [3] and in [4] were 8 to 16 µg/mL, 1 to 2 µg/mL and 4 to 8 µg/mL, respectively. The IC50 in data set [5] stood at 43.6 µg/mL; in [6], 7.4 µg/mL; in [8], 51.3 µg/mL; in data set [9], 7.72 µg/mL. In addition, the selectivity ratio in [7] is 5.89; in data set [10], 6.64.

`COc1ccc(-n2n[n+](-c3ccc(OC)c(OC)c3)c3c2C(=O)c2ccccc2C3=O)cc1OC.O=S(=O)([O-])C(F)(F)F`: the MIC was above 128 µg/mL in data set [1], 4 µg/mL in [2], 2 µg/mL in [3] and 4 µg/mL in data set [4]. Further, the IC50 in data set [5] was 3.76 µg/mL; in [6], 1.6 µg/mL. In addition, the selectivity ratio in data set [7] amounted to 2.35.

Turning to `CC[n+]1nn(-c2ccc(OC)cc2)c2c1C(=O)c1ccccc1C2=O.O=S(=O)([O-])C(F)(F)F`, the MIC in data set [1] is 128 µg/mL; in [2], 4 to 8 µg/mL; in data set [3], 2 µg/mL; in [4] it was 2 µg/mL. The IC50 in [5] was 5 µg/mL; in [6], 0.73 µg/mL; in data set [8], 7.85 µg/mL; in data set [9], 0.82 µg/mL. Moreover, the selectivity ratio in data set [7] was 6.85; in data set [10] it was 9.57.

`CCCC[n+]1nn(-c2ccc([N+](=O)[O-])cc2)c2c1C(=O)c1ccccc1C2=O.O=S(=O)([O-])C(F)(F)F`: the MIC in [2] was 4 µg/mL; in [3], 2 µg/mL; in data set [4], 8 to 16 µg/mL. For the same compound, the IC50 in data set [5] was found to be 49.8 µg/mL; in [6] it was 44.9 µg/mL; in [8], 42.8 µg/mL; in [9], 43.2 µg/mL. Further, the figures for the selectivity ratio in data set [7] and in data set [10] were 1.11 and 0.99, respectively.

For the compound `C[n+]1nn(-c2ccc(C#N)cc2)c2c1C(=O)c1ccccc1C2=O.O=S(=O)([O-])C(F)(F)F`, the MIC in data set [1] is above 128 µg/mL; in data set [2], 2 µg/mL; in data set [3] it was 1 µg/mL; in data set [4] it was 2 µg/mL. For the same compound, the IC50 in data set [5] was 30.1 µg/mL; in data set [6] it was 5.2 µg/mL; in data set [8] it was 32.6 µg/mL; in data set [9] it was 5.91 µg/mL. Moreover, in [10], the selectivity ratio was determined as 5.52.

Take `CCCCCCCCCC[n+]1nn(-c2ccc([N+](=O)[O-])cc2)c2c1C(=O)c1ccccc1C2=O.O=S(=O)([O-])C(F)(F)F`: the results for the MIC in data set [2], in [3] and in [4] were 2 to 4 µg/mL, 8 µg/mL and 8 to 16 µg/mL, respectively. Moreover, the IC50 stood at 7.39 µg/mL in data set [5], 7.02 µg/mL in data set [6], 30.6 µg/mL in [8] and 7.29 µg/mL in [9]. In addition, the selectivity ratio in [7] was determined as 1.05; in [10], 4.2.

Take `CC[n+]1nn(-c2ccc(Cl)cc2)c2c1C(=O)c1ccccc1C2=O.O=S(=O)([O-])C(F)(F)F`: the MIC in data set [1] is above 128 µg/mL; in data set [2] it was 2 to 4 µg/mL; in [3] it was 1 µg/mL; in [4], 2 µg/mL. In addition, the IC50 in data set [5] turned out to be 4.22 µg/mL; in data set [6] it was 0.85 µg/mL; in data set [8], 6.65 µg/mL; in [9] it was 0.78 µg/mL. Further, the selectivity ratio in data set [7] was determined as 4.96; in data set [10], 8.53.

Take `CCCCCCCCn1n[n+](CC)c2c1C(=O)c1ccccc1C2=O.O=S(=O)([O-])C(F)(F)F`: the MIC in [11] was above 128 µg/mL; in [12], 0.25 to 0.5 µg/mL.

On to `C[n+]1nn(-c2ccc([N+](=O)[O-])cc2)c2c1C(=O)c1ccccc1C2=O.O=S(=O)([O-])C(F)(F)F`, for which the MIC in data set [1] was above 128 µg/mL; in data set [2], 2 µg/mL; in data set [3], 1 µg/mL; in data set [4], 2 µg/mL. The IC50 turned out to be 52.9 µg/mL in data set [5], 3.5 µg/mL in data set [6], 55.8 µg/mL in data set [8] and 4.64 µg/mL in data set [9]. For the same compound, the selectivity ratio turned out to be 15.1 in [7] and 12 in [10].

Consider `NC[C@@H]1O[C@H](O[C@H]2[C@@H](O)[C@H](O[C@@H]3[C@@H](O)[C@H](N)C[C@H](N)[C@H]3O[C@H]3O[C@H](CN)[C@@H](O)[C@H](O)[C@H]3N)O[C@@H]2CO)[C@H](N)[C@@H](O)[C@@H]1O` [FRAMYCETIN], for which the MIC is 2 µg/mL (≈ 3.25 µM) in [1], 2 to 4 µg/mL (≈ 3.25 to 6.51 µM) in data set [2], 256 µg/mL (≈ 416 µM) in [3] and above 256 µg/mL in data set [4].

On to `CN[C@H](CC(C)C)C(=O)N[C@H]1C(=O)N[C@@H](CC(N)=O)C(=O)N[C@H]2C(=O)N[C@H]3C(=O)N[C@H](C(=O)N[C@H](C(=O)O)c4cc(O)cc(O)c4-c4cc3ccc4O)[C@H](O)c3ccc(c(Cl)c3)Oc3cc2cc(c3O[C@@H]2O[C@H](CO)[C@@H](O)[C@H](O)[C@H]2O[C@H]2C[C@](C)(N)[C@H](O)[C@H](C)O2)Oc2ccc(cc2Cl)[C@H]1O` [VANCOMYCIN], for which the MIC in data set [1] was above 256 µg/mL; in [4], 32 µg/mL (≈ 22.1 µM).
